The record followed here is patent US20200181284A1, “EPIGENETIC INHIBITORS FOR SENSITIZING HEMATOLOGIC OR OTHER MALIGNANCIES TO GLUCOCORTICOID THERAPY” (UNIVERSITY OF SOUTHERN CALIFORNIA, priority 2017, published 2020).

Structures are written as SMILES.

The subject of assay [1] is NALM6 cells. The experiment in a line: Cell death assay (Presto Blue, 72 h) with dex plus inhibitor. The format is cell-based, human. On the procedure: Cells were plated in CellStar low evaporation lid 96-well round-bottom plate at a density of 100,000 cells/ml. Directly after plating, cells were treated in triplicate with serial dilutions of dexamethasone or vehicle control (0.1% ethanol). After 72 h, cell viability of each well was analyzed in duplicate using the Presto Blue Assay Reagent (Life Technologies). Fluorescence was measured and data were analyzed with Prism6 software.
FIGS. 40A, 40B, 40C, 40D-1, 40D-2, 40D-3, and 40D-4 show Aurora kinase B inhibitors sensitizing NALM6 cells to GC-induced cell death. As shown in FIGS. 40A and 40B, NALM6 cells were treated with the indicated dex concentration in addition to 0.75 μM ZM447439 (FIG. 40A), 16 nM AZD2811 (FIG. 40B), or equivalent volume of vehicle DMSO for 72 h, and cell survival was measured by a fluorescence metabolic assay. In each condition, the value measured with dex was normalized to the fluorescence value measured with ethanol. Percentage of survival is shown as the mean±SEM of 4 independent experiments and p-values for individual dex concentrations were calculated using a paired t-test. *p≤0.05, **p≤0.01, * * *p≤0.001. F-test comparing the two curves: p≤0.001. Insets show the EC50s that were calculated as the concentration at which half the cells remained alive, compare to vehicle controls. Error bars depict the SEM of 4 independent experiments and p-values were calculated to compare AURKB inhibitor treatment to DMSO using a paired t-test ** p≤0.01, * * *p≤0.001. […] The indicated proteins were then examined by immunoblot. As shown in FIGS. 40D-1, 40D-2, 40D-3, and 40D-4, NALM6 cells pre-treated with AZD2811 (16 nM) or DMSO for 24 h, were then treated for 8 h with 100 nM dex or ethanol. mRNA levels for the indicated GR target genes were measured by RT-qPCR and normalized to β-actin mRNA levels.
FIGS. 48A, 48B, 48C, 48D, 48E, and 48F show the effect of AURKB inhibitors on EHMT2 phosphorylation and dex-induced cell death. […] In each condition, the value measured with dex was normalized to the fluorescence value measured with ethanol. Percentage of survival is shown as the mean±SEM of 4 independent experiments and p-values for individual dex concentrations were calculated using a paired t-test. *p≤0.05, **p≤0.01, * * *p≤0.001. F-test comparing the two curves: p≤0.001. EC50s were calculated as the concentration at which half the cells remained alive, compare to vehicle controls. Error bars depict the SEM of 4 independent experiments and p-value was calculated to compare ZM treatment to DMSO using a paired t-test **p≤0.01, * * *p≤0.001. […] EC50s were calculated as the concentration at which half the cells remained alive, compare to vehicle controls. Error bars depict the SEM of 4 independent experiments and p-value was calculated to compare alisertib treatment to DMSO using a paired t-test. […] (E-F) RCH-ACV cells were treated with the indicated dex concentration in addition to 0.75 μM ZM447439 (FIG. 48E), 16 nM AZD2811 (FIG. 48F), or DMSO for 72 h, and cell survival was measured by a fluorescence metabolic assay. In each condition, the value measured with dex was normalized to the fluorescence value measured with ethanol. Percentage of survival is shown as the mean±SEM of 5 individual experiments and the p-value for each dex concentration was calculated using a paired t-test. *p≤0.05, **p≤0.01, * * *p≤0.001. F-test comparing the two curves: p≤0.001.
FIGS. 55A, 55B, and 55C show JIB-04 enhances GC-induced death of B-ALL cell line NALM6.

In assay [2] the test system is GR target genes in A549 cells. Kind of assay: RT-qPCR of endogenous GR target genes in A549 cells. The assay is classed as cell-based, human. The following applies: 2 μM added 1 h prior to 100 nM dex. On the procedure: RNA was isolated using Trizol (Invitrogen) according to the manufacturer's instructions. Reverse transcription reaction was performed using iScript (Biorad) according to specifications with 0.8 μg of total RNA as template. Quantitative PCR amplification of the resulting cDNA was performed on a Roche LightCycler 480 using SYBR green I master mix (Roche). mRNA levels were normalized to the level of β-actin mRNA. Primer sequences are specified below in Tables 6 and 7.
The results as shown in FIGS. 21A-21E generally highlight that G9a and GLP act as coactivators for a subset of endogenous GR target genes. FIG. 21A is an immunoblot showing GLP, G9a and tubulin protein levels in whole cell extracts from A549 cells that were transduced with a control lentivirus encoding a non-specific shRNA (shNS) or lentivirus encoding an shRNA targeting GLP (shGLP). […] Results shown are mean±SEM for five independent experiments. p-value was calculated using a paired t-test. *p≤0.05, **p≤0.01. For FIGS. 21F-1, 21F-2, 21F-3, 21F-4, 21F-5, 21F-6, 21F-7, and 21F-8, mRNA levels for the indicated GR target genes were determined as in FIGS. 21D-1, 21D-2, 21D-3, 21D-4, 21D-5, 21D-6, 21D-7, and 21D-8, using A549 cells which were not transfected with siRNA. […] Results shown are mean±SEM for at least four independent experiments. p-value was calculated using a paired t-test. *p≤0.05, **p≤0.01.

With `COc1cc2c(Nc3ccc(NC(=O)c4ccccc4)cc3)ncnc2cc1OCCCN1CCOCC1` [ZM447439, N-[4-[[6-methoxy-7-(3-morpholin-4-ylpropoxy)quinazolin-4-yl]amino]phenyl]benzamide], the “sensitivity of NALM6 cells to dex-induced apoptosis” value in assay [1] (0.75 µM ZM447439 stronger effect than 0.625 μM, 72 h) is recorded as “significantly sensitized”. Further, in assay [2] (G9a- and GLP-independent genes), the “induction of FKBP5, FOXO1 and CITED2 mRNAs by dex” value is recorded as “not significantly altered”. For the same compound, the “dex-induced CDH16, ENaCα, PPL, HSD11B2 and CDH1 mRNA levels” value in assay [2] (G9a/GLP-dependent genes) is listed as “significant increases”.
For `Clc1ccc(N/N=C(\c2ccccc2)c2ccccn2)nc1` [JIB-04, 5-chloro-N-[(E)-[phenyl(pyridin-2-yl)methylidene]amino]pyridin-2-amine], the “GC-induced death of NALM6 cells” value in assay [1] (72 hours with various dex concentrations plus KDM inhibitor) is listed as “effectively enhanced”.
